Test results from a melting point compilation (Tetko et al.; mined from patent text by program, amines drawn as free bases though some values may be those of a salt).

Structure (SMILES)	melting point [°C]
O=c1c2cc(F)c(Cl)nc2n(-c2ccc(F)cc2F)c(=O)n1OCc1ccccc1	215 to 216
O=S(=O)(CCCCl)Nc1cccc(OCc2ccc3ccccc3n2)c1	116 to 117
CCCOCc1ccc(C#CC2(O)CN3CCC2CC3)cc1 (stereo not given)	140 to 141
CCCOCC1CC2CCC13CN(CCC)CCC31c3cccc(O)c3OC21 (stereo not given)	123 to 124
CCCn1c(COCC)nc2c(N)nc3ccc(OCC4CCCO4)cc3c21 (stereo not given)	178 to 179
CC1CCC(NC(=O)NS(=O)(=O)c2ccc(CCNC(=O)N3CCCCC3=O)cc2)C1 (stereo not given)	166 to 168
CCOC(=O)NNC(=O)Nc1c(F)c(F)c(F)c(F)c1F	180 to 182
CC(C)CC(NC(=O)OCc1ccccc1)C(=O)NC(C#N)COCc1ccccc1 (stereo not given)	126 to 127
O=C(OCc1ccccc1)c1ccc(N2CCOCC2)cc1	85 to 86
CCOC(=O)CN(CP(=S)(Oc1ccccc1)Oc1ccccc1)C(=O)C(F)(F)F	50 to 52
CCCSc1ccc(-c2coc3ccc(-c4nnc(C)o4)cc23)cc1	101 to 102
CC(=O)OCc1cc2ccccc2[nH]1	112
Cc1ccccc1-c1ccc(C(=O)N2Cc3ccc(C(=O)NCc4cccnc4)n3Cc3ccccc32)cc1	176 to 177
O=[N+]([O-])c1cc2c(c(Cl)c1OCc1ccccc1)CCCC2	80 to 82
N#Cc1ccc(N2CCC(=O)C2)c2ccccc12	153 to 154
CCCCCc1ccc2c(c1)Cc1cc(CCCCC)ccc1-2	98.9 to 99.6
COc1ccc(C(NC(=O)CC2CCCC2)C2=CCc3ccccc32)c(C(=O)NS(=O)(=O)c2ccccc2C)c1 (stereo not given)	227 to 228
CCS(=O)(=O)Nc1cc(C2(NC)NC=NC=C2Cl)c(F)cc1C#N (stereo not given)	211 to 212
CCOCCOCc1ccc(-c2ccc3c(c2)C=C(C(=O)Nc2ccc(CN(C)C4CCOCC4)cc2)CCS3(=O)=O)cc1	184 to 186
COC(=O)COc1ccc(CCCO)cc1	47 to 48
COc1ccc(C=NNC(=O)c2ccc(O)cc2)cc1	209
O=S(=O)(O)CCNCCO	180 to 183
O=C1c2ccccc2C(=O)N1CCCC=NNc1ccc(S(=O)(=O)Nc2ccccc2)cc1	126 to 129
COC(=O)Cc1sc(N=C2SC[C@@H]3Cc4ccccc4CN23)nc1C	66

Structure (SMILES)	melting point [°C]
COc1cc(C(C#Cc2c(C)nc(N)nc2N)OC)cc(OC)c1OC (stereo not given)	127 to 129
COc1cc(OCc2cccnc2)ccc1/C=C/c1cc(/C=C/c2ccc3cc[nH]c3c2)n[nH]1	90 to 95
O=C(Cn1c(-c2ccccc2)ncc(NS(=O)(=O)c2ccccc2)c1=O)NC(Cc1ccccc1)C(=O)C(F)(F)F (stereo not given)	92 to 94
COC(=O)C1C(=O)N(C)C(=O)c2ccc(Cl)cc21 (stereo not given)	166 to 167
COC(=O)N(C)C1CN(C(=O)Nc2ccc(OC(F)(F)F)cc2)N=C1c1ccc(OC(F)F)cc1 (stereo not given)	125 to 126
OC1(c2ccc(-c3ccccc3)cc2)CN2CCC1CC2 (stereo not given)	165 to 166
COc1ccc(OC)c2c1CC[C@](O)(C(C)=O)C2	117 to 120
C=Cc1ccc(CN2CCN(Cc3ccc(C=C)cc3)CCN(Cc3ccc(C=C)cc3)CC2)cc1	71 to 73
COC(=O)Cc1cn(C)nc1OCc1ccc(OCc2csc(-c3ccccc3)n2)nc1	85 to 86
O=C(C1CC1)N1CCC(C2CCc3ccc(O)cc32)CC1 (stereo not given)	75 to 82
CC(=O)c1nn(C)c2ccccc12	86 to 88
O=C(O)C1CCC(c2ccc(O)cc2)CC1 (stereo not given)	248 to 250
Cc1nsc(N(C)C(=O)C2CCCCC2)n1	96
CC1=NC(C)c2nnc(-c3ccc(Cl)cc3)n2-c2ccccc21 (stereo not given)	230
O=[N+]([O-])c1ccc(/C=C/c2ccc(O)cc2)cc1	210
COC(=O)c1cc(C=O)ccc1C	60 to 61
Clc1ccc(C(c2ccccc2)N2CCN(CCCn3cnc4ccccc43)CC2)cc1 (stereo not given)	106
CCOC(=O)c1sc(-n2ccc(O)cc2=O)nc1C	270 to 273
O=[N+]([O-])c1cccc2c1sc1c(Nc3cccc(Br)c3)ncnc12	247 to 248
CN1CCN(CCO)C1=Nc1ccccc1N1CCOCC1	129 to 131
CCOC(=O)c1cc2c(cn1)[nH]c1cccc(Oc3ccc([N+](=O)[O-])cn3)c12	298 to 300
O=C(O)c1c(Cc2cc3c(cc2Cl)OCO3)c(-c2ccccn2)nn1CC1CCCCC1	238
O=C1NCN(c2ccccc2)C12CCN(CC1CCc3ccc(F)cc3C1O)CC2 (stereo not given)	210 to 212
O=CNc1ccc(Br)c(Cl)c1	110 to 113

Structure (SMILES)	melting point [°C]
COC(=O)c1cc2c(nc1C(=O)OC)N(C)CC2	132 to 133
Cc1cc(NC(=O)NS(=O)(=O)c2ccccc2)cc(C)c1S(=O)(=O)C[N+](=O)[O-]	140 to 142
Nc1c(Cl)cc(C(=O)OC2CCN(CCCC(=O)c3ccc4[nH]c(=O)[nH]c4c3)CC2)c2c1CCO2	273
NNC(=O)NC(c1cccc(Cl)c1)c1ccnc2ccccc12 (stereo not given)	187
O=C(O)c1ccc(Cn2ccc(OCc3ccccc3)c(Br)c2=O)cc1	251 to 256
COCn1nc(-c2cc(C(C)(C)C)c(O)c(C(C)(C)C)c2)c2cccnc21	113 to 115
CC(C)(C)OC(=O)N1CCC(O)(CSC2=CC(=O)C(=O)c3ccccc32)CC1	156 to 157
Cn1nnnc1S(=O)(=O)CCCCBr	83.5 to 85.5
COc1cc(Cc2cnc(N)nc2N)c2c(c1OC)OC(C1CC1)C=C2 (stereo not given)	229
CSc1ccc(-c2nc3[nH]nc(N)c3c(=O)n2-c2ccc(C)cc2)cc1	> 285
CN1Cc2c(F)ccc3scc(c23)S1(=O)=O	175
Cn1ccc2cc(N3Cc4ccc(OC(F)(F)C(F)Cl)cc4C3=O)ccc21 (stereo not given)	200 to 205
Cc1coc(NC(=O)C(c2ccccc2)c2ccccc2)n1	209 to 211
Cc1c(C)c2c(c(C)c1Br)C(c1ccc(-c3ccccc3)cc1)CO2 (stereo not given)	153 to 154
CC(=O)N1CCC2(CC1)CC(=O)c1c(ccc([N+](=O)[O-])c1O)O2	201 to 202
CC1=NN(c2ccc(Cl)cc2)C(c2ccc(NC(=O)c3cccc(I)c3C(=O)NC(C)C)c(C)c2)C1 (stereo not given)	222 to 224
CC(COc1ccc(O)c(C(N)=O)c1)N(Cc1ccccc1)CC(O)COc1ccc(OCC(N)=O)cc1 (stereo not given)	145 to 149
CCOC(=O)Cc1nn(Cc2nc3cc(C(F)(F)F)ccc3s2)c(=O)c2ccccc12	131 to 132
CC(C)(C)c1ccc(Cn2cc(C(=O)C(=O)O)c3cc(-c4ccc(C(C)(C)C)cc4)ccc32)cc1	111 to 112
O=[N+]([O-])c1cc(F)ccc1S(=O)(=O)c1ccccc1	127 to 129
O=C1c2cc(O)ccc2OCN1CCO[N+](=O)[O-]	80
O=C(N[C@H](Cc1ccc(C(F)(F)F)cc1)[C@@H](O)c1ccc(F)cc1)c1cccc2c1C(=O)c1ccccc1-2 (racemic)	185 to 186
